Entries after “also recorded” stand apart in the source; their conditions may differ.
Tests used:
[1] = test system: MDA-MB-231 breast cancer cells; experiment: Western blot of proliferation and apoptosis proteins; assay type: cell-based, human; settings: 24 h
Procedure: (§1) To extend these observations to MDA-MB-231 breast cancer cells, cells were treated with DJ4 at 2.5, 5.0, and 10 µM for 24 h. ROCK1/2 catalyzes the inactivating phosphorylation of the myosin phosphatase subunit MYPT1 at Thr696 and Thr853 [16]. To confirm the targeting of ROCK1/2 by DJ4 in MDA-MB-231 cells, we probed for phosphorylation of MYPT1.
In contrast, expression of proliferating cell nuclear antigen (PCNA) protein was decreased at all the concentrations (Figure 4C). PCNA is highly expressed during active DNA synthesis (S phase).
(§2) For protein expression studies, MDA-MB-231 cells were treated with indicated concentrations of DJ4 for 24 h. Additionally, A549 cells were treated for 24 h and 48 h. Cell lysate preparation, protein estimation, and Western blot analysis was performed as per the procedure reported earlier. The blots were probed with cleaved caspase 7 (#9492, Cell Signaling, Danvers, MA, USA), GAPDH (#97166, Cell Signaling, Danvers, MA, USA), β-Actin (#3700, Cell Signaling, Danvers, MA, USA), pErk (#5726, Cell Signaling, Danvers, MA, USA), p21 ^WAF1/CIP1 (#60480, Cell Signaling, Danvers, MA, USA), cyclinD3 (#2936, Cell Signaling, Danvers, MA, USA), CDK4 (#23972, Cell Signaling, Danvers, MA, USA), cleaved PARP (#32563, Cell Signaling, Danvers, MA, USA), pan Erk (#23887, Cell Signaling, Danvers, MA, USA), pMYPT1 (Thr853, # SAB4503944, Millipore, Inc., Burlington, MA, USA) and PCNA (#sc-56, Santa Cruz Biotechnology, Inc., Dallas, TX, USA) antibodies.

[2] = test system: pMYPT1 (Thr696 and Thr853) in MDA-MB-231 cells; experiment: Western blot of MYPT1 phosphorylation (ROCK1/2 targeting); assay type: cell-based, human; settings: MDA-MB-231, 2.5, 5.0 and 10 µM, 24 h
Procedure: as §1, §2

[3] = test system: NCI-60 human cancer cell line panel; experiment: NCI-60 single concentration screen, whole panel; assay type: cell-based; settings: single concentration 10 µM
Description: The selected active compounds were screened at NCI, as a part of In Vitro Cell Line Screening Project (IVCLSP), for their effect on cell growth in 60 different cancer cell lines. The 60 human cancer cell line panel included leukemia, melanoma, non-small cell lung cancer, colon, central nervous system (CNS), ovarian, renal, prostate, and breast cancer cell lines. The detailed procedure and applications of NCI-60 cell line screening can be found at https://dtp.cancer.gov/discovery_development/nci-60/default.htm (accessed on 9 January 2023). Briefly, cells were plated in 96-well plates and incubated for 24 h. One set of cells was fixed with trichloroacetic acid at time 0 h (Tz), and SRB (sulphorhodamine B) assays were performed to quantify the cells. The remaining set of cells were treated with 10 µM single concentration of each compound and incubated for 48 h (Te) after which the cells were fixed, and the SRB assays were performed. Data are presented as percent growth relative to the control as 100% according to the following calculations:
When Te >/= Tz. Growth(%)=Te−Tz/C−Tz∗100 and when Te < Tz. (1) Growth(%)=Te−Tz/Tz∗100
Values between 0–100 indicate cell growth, zero (0) indicates no cell growth, values < 0 indicate cell death.

[4] = Solubility in culture media at 10 µM (observation); assay type: physicochemical; settings: NCI-60 screening
Procedure: To study the effectiveness of these analogs in a vast range of cancer cell lines, the compounds were subjected to cell viability screening in the NCI-60 human cancer cell line panel representing nine different cancer types (Supplementary Figure S2). Testing of the compounds in such a wide range of cancer types helps identify sensitivity and selectivity of specific types of cancers to the novel compounds. The initial screening was performed at a single concentration of 10 µM. At 10 µM, both DJ110 and DJ-Morpholine were insoluble and were, therefore, ineffective. The parental DJ4 compound was effective in a wide spectrum of cancer cell lines, with breast cancer, NSCLC, and central nervous system cancers displaying the most consistent response. The ovarian cancer cell line NCI/ADR-RES and HCC-2998 colon cancer cells were relatively resistant to DJ4 (IC50 > 10 µM) (Supplementary Figure S2). […] NCI/ADR-RES (ovarian), RPMI-8226, and K-562 (leukemia) cell lines were relatively resistant (29%, 29%, 26% increase in cell number) to DJE4. […] Two CNS cell lines, SNB-75 and SF-539, were the most sensitive in which DJ-Allyl induced the cell death (60% reduction in cell number). NCI/ADR-RES (ovarian), MALME-3M (melanoma), HCC-2998 (colon), RPMI-8226, and K-562 (leukemia) were relatively resistant (~40% increase in cell number) to DJ-Allyl. […]

[5] = MDA-MB-231, all concentrations (2.5, 5.0, 10 µM)

Row | SMILES | expression of pErk ([1]; MDA-MB-231, 2.5, 5.0 and 10 µM) | cleaved PARP [1, 5] | expression of PCNA [1, 5] | expression of cleaved caspase 7 [1, 5] | pMYPT1 (Thr696 and Thr853) [2] | effectiveness in NCI-60 screening [3] | solubility at 10 µM in culture media [4]
1 | O=C1N/C(=N\CCc2ccccc2)S/C1=C/c1c[nH]c2ncccc12 [DJ4] | significantly increased | corresponding increases | decreased | significantly increased | concentration-dependent decrease | – | –
2 | O=C1N/C(=N\Cc2ccccc2)S/C1=C/c1c[nH]c2ncccc12 [DJ110] | – | – | – | – | – | ineffective | insoluble; also recorded: sparingly soluble
3 | O=C1N/C(=N\CCN2CCOCC2)S/C1=C/c1c[nH]c2ncccc12 [DJ-Morpholine] | – | – | – | – | – | ineffective | insoluble; also recorded: sparingly soluble

Reference: article PMC10458458, “Characterization of Anticancer Effects of the Analogs of DJ4, a Novel Selective Inhibitor of ROCK and MRCK Kinases” (Pharmaceuticals, 2023)
